Results as given in patent US20250084056A1, “SUBSTITUTED OXOISOINDOLINYL PIPERIDINE-2,6-DIONE COMPOUNDS” (BRISTOL-MYERS SQUIBB COMPANY, priority 2023, published 2025).

Key:
Format in all cases: cell-based
Phospho-Rb (Ser807/811) = experiment: Phospho-Retinoblastoma (pRB) Cellular Assay; conditions: Homo sapiens, OVCAR-3, NIH OVCAR3 cells, 24 hours; for IC50: concentration giving 50% response; for Emax: maximum response, reference compound at 10 μM = 100%, read-out: pRB Ymax
Method: Phospho-Retinoblastoma (pRB) Cellular Assay
NIH OVCAR3 (HTB-161, American Type Culture Collection, Manassas VA) cells were grown up to passage 10 in culture media made up of RPMI (11835-030 Gibco, Grand Island NY), 20% HI FBS (16140-071, Gibco, Grand Island NY), and 0.01 mg/mL insulin from bovine pancreas (I6634-1G, Sigma Aldrich, St. Louis, MO).
The cells were seeded in a 384-well CulturPlate (6007688, Perkin Elmer, Waltham MA) at a density of 10,000 cells/well in 20 μL of the above culture media and incubated overnight at 37° C. and 5% CO2.
The next day, cells were treated using an Echo 650 (Beckman Coulter, Indianapolis IN) acoustic dispenser with 40 nL of compounds dissolved in DMSO at the appropriate serial dilutions (10 mM to […]). Cells were then incubated for 24 hours as above.
After 24 hours elapsed, media was removed from each well and shortly after 20 μL of the following mix was added: 12 μL deionized water, 4 μL lysis buffer, 4 μL of reconstituted antibody mix, and 1:100 phosphatase inhibitor. These components belong to the Phospho-Rb (Ser807/811) Cellular Kit (64RBS807PEY, Perkin Elmer, Waltham MA).
Plates were sealed and incubated away from light at room temperature for at least 4 hours before reading them on an EnVision plate reader (Perkin Elmer, Waltham MA) according to the kit manufacturer's protocol. The reference compound, N-(5-{[(5-tert-butyl-1,3-oxazol-2-yl)methyl]sulfanyl}-1,3-thiazol-2-yl)piperidine-4-carboxamide, at 10 μM was used to define 100% response. Assay results for each compound were reported as IC50, the concentration giving 50% response, and Ymax, the maximum response observed with the compound.

GSPT1 = GSPT1 (Homo sapiens, UniProt P15170+Q96SW2); experiment: GSPT1 Cellular Degradation Assay (DF15-GSPT1-ePL); design: expressed in transfected cells; conditions: DF15-GSPT1-ePL cells, 20 hours
GSPT1, sequence (P15170 whole entry, the tested form may be a part): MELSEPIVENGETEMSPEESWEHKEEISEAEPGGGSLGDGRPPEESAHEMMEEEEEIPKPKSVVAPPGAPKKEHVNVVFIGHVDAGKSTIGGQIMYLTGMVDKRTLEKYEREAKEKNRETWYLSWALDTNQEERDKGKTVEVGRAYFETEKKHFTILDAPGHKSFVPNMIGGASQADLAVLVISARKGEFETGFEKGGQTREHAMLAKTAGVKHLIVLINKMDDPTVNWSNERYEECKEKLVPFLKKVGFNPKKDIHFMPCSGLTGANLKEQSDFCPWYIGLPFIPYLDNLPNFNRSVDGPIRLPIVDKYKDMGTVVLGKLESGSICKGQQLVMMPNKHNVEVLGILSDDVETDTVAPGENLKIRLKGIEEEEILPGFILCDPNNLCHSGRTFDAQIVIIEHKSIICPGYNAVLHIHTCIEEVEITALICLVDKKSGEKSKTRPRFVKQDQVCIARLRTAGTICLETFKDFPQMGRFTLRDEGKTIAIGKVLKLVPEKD
GSPT1, sequence (Q96SW2 whole entry, the tested form may be a part): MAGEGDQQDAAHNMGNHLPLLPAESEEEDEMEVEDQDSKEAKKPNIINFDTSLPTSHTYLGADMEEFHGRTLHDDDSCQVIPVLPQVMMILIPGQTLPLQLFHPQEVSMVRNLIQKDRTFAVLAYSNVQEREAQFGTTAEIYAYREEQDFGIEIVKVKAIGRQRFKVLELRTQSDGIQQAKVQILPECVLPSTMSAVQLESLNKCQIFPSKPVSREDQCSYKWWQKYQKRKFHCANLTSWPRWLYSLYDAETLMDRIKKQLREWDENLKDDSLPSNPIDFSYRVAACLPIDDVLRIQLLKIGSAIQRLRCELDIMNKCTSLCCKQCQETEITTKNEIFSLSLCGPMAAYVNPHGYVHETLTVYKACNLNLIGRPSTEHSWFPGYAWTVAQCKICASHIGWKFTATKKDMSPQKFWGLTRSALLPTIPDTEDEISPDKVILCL
GSPT1, sequence (Q16531 whole entry partner, the tested form may be a part): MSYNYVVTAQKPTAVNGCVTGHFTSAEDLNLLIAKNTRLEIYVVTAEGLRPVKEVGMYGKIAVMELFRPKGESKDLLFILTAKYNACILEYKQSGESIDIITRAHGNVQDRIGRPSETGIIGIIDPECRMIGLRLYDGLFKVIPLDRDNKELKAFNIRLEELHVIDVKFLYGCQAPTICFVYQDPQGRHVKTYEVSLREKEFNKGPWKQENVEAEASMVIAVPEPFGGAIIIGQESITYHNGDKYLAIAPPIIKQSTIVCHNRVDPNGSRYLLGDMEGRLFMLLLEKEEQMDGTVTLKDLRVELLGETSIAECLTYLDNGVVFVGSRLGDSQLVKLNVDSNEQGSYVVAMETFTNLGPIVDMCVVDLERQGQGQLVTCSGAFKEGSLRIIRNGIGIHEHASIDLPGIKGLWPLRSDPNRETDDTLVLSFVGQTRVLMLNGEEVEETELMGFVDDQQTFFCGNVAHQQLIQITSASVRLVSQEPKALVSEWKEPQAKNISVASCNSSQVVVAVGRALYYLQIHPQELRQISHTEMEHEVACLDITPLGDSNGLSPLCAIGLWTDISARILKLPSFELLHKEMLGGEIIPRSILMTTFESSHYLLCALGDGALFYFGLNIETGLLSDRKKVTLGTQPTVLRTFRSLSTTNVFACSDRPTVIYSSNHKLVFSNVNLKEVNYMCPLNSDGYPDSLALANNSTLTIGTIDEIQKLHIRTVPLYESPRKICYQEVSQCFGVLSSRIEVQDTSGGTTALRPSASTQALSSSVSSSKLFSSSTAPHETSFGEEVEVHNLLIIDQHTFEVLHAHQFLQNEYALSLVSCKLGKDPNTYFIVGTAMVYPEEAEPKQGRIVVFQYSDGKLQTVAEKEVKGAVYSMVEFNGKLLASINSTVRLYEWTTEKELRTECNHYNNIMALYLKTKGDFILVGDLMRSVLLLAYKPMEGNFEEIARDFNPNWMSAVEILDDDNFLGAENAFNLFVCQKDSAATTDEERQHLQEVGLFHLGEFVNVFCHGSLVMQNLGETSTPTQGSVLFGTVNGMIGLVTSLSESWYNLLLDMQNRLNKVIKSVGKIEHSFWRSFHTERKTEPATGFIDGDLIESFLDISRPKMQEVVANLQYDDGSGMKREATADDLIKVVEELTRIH
Excerpt: DF15-GSPT1-ePL was used for intracellular GSPT1 protein degradation detection in form of chemiluminescent signal, which was built on a human DF15 cell line (CVCL_Y429) with conditional co-expression of chimeric GSPT1 (target) and ePL/donor (enhanced ProLabel® by DiscoverX for enzyme fragment complementation with donor-acceptor pairing). The cells used the culture medium in two arrangements for assay and maintenance. During assay, it used Core-RPMI 1640 medium with 10% Fetal Bovine Serum (Heat Inactivated) and 1× Penicillin/Streptomycin; and during passage maintenance, used added ingredients: 0.1 mM NEAA, 1 mM sodium pyruvate, 25 mM Hepes, 0.1% Pluronic F-68, 1× Glutamin, 4 μg/mL Blasticidin (selection agent). Detection was performed on a 1536 well tissue culture plate (Corning #3727) with cells seeded in 3.5 μL core-RPMI 1640 at density of 0.25 million/mL after the pre-titrated test compounds in DMSO on ECHO plate were dispensed onto the assay plate by use of ECHO (liquid handing system via acoustic energy from Labcyte). Assay incubation lasted 20 hours in 37° C. incubator with 5% CO2; then followed by 30 minutes of plate-cooling at room temperature; then detection-reagent-mix was added in 3.5 μL/well with pre-defined proportion of enzyme acceptor, substrate, and lysis buffer. Plate signal reading for luminescence on an EnVision plate reader (PerkinElmer) was conducted after 60 minutes of former step at room temperature. Raw data was collected and processed with Dotmatics (data analyzer) for test compound's potency values. The reference compound, 3-[5-(3,6-dimethoxyisoquinolin-1-yl)-1-oxo-2,3-dihydro-1H-isoindol-2-yl]piperidine-2,6-dione, at […] was used to define 75% response. Assay results for each compound were reported as DC50, the concentration giving 50% response, and Dmax, the maximum response observed with the compound.

Cyclin E1 = Cyclin E1 (Homo sapiens, UniProt P24864+Q96SW2); experiment: Cyclin E1 Cellular Degradation Assay (MSD); design: endogenous in cells; host or cells: OVCAR3; conditions: for DC50 / Dmax: Cyclin E1 cellular degradation; for Dmax: maximum degradation; for Ratio of GSPT1 DC50/Cyclin E1 DC50: selectivity for degradation of Cyclin E1 over GSPT1
Cyclin E1, sequence (P24864 whole entry): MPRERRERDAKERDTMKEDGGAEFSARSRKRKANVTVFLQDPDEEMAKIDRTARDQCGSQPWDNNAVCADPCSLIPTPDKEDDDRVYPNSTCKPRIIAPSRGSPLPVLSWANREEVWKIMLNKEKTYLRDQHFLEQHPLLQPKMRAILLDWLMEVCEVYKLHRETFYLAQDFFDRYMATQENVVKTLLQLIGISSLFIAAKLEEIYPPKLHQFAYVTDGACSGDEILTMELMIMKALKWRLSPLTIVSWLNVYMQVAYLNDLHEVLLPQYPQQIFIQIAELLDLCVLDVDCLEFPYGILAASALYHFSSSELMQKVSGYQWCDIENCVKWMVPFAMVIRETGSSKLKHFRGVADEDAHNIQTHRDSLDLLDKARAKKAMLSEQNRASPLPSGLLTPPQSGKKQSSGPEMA
Cyclin E1, sequence (Q96SW2 whole entry): as the sequence (Q96SW2 whole entry, the tested form may be a part) above
Cyclin E1, sequence (Q16531 whole entry partner): as the sequence (Q16531 whole entry partner, the tested form may be a part) above
Method: Culturing cells: On Day 0, OVCAR3 cells were plated at 15,000 cells/well in 40 μL of culture medium (RPMI1640, 20% FBS, 0.01 insulin, 1% Anti/Anti) in a 384 well cell culture plate. Cell cultures were incubated for 24 hours at 37° C. and 5% CO2.
Coating MSD plates: On Day 1, rabbit anti-CCNE1 antibody (Abcam ab33911, 1 μg/mL in DPBS, […]) was dispensed to a Meso Scale Discovery plate (MSD L21XA). The MSD plate was spun briefly to ensure the solution coated the bottom of the well and incubated overnight at 4° C. On Day 2, the plate was washed 3 times with TBS +0.2% TWEEN, blocked for 1 hour with 3% MSD Blocker A (MSD R93AA-1, 30 μL/well), then washed again 3 times with TBS+0.2% TWEEN.
Treating and lysing cells: On Day 1, compounds of interest were dispensed into the cell cultures by acoustic dispensing technology. The cell cultures were then spun at 400 g for 4 minutes to disperse the compounds and incubated at 37° C. and 5% CO2 for 24 hours. After incubation, 40 μL of DPBS was added to the cell cultures to dilute the media. All liquid was gently discarded and immediately replaced with 30 μL of lysis buffer (MSD Tris Lysis buffer (MSD R60TX-2), Halt Protease inhibitor (ThermoFisher 78438), Phosphatase Inhibitor II (Sigma-Aldrich P5726), Phosphatase Inhibitor III (Sigma-Aldrich P0044), 0.02M PMSF (Sigma-Aldrich 7626), 0.1% SDS (VWR E719-100ML)). The plate was then sealed, shaken at 300 rpm at room temperature for 5 minutes, and freeze-thawed for optimum cell lysis.
Collecting data: After thawing, 25 μL of lysate was transferred to a coated MSD plate. The plate was then sealed and shaken at 300 rpm overnight in 4° C. On Day 3, the MSD plate was washed 3 times with TBS+0.2% TWEEN. Mouse anti-CCNE1 antibody (Abcam ab238081, 0.5 μg/mL in 1% MSD Blocker A, 10 μL/well) dispensed to the MSD plate, which was then sealed and shaken at room temperature for 3 hours. After the first antibody incubation, the plate was washed 3 times with TBS+0.2% TWEEN, then goat anti-mouse Sulfo-Tag antibody (MSD R32AC, 1 μg/mL in 1% MSD Blocker A, 10 μL/well) was dispensed to the MSD plate. The plate was sealed again and shaken at room temperature for 1 hour, then washed 3 times with TBS+0.2% TWEEN. After the final wash, 35 μL of 1× Read Buffer (MSD R92TC-1) was added to each well and the data was captured using the MSD plate reader. The reference compound, [2-(2,6-dioxopiperidin-3-yl)-4-methoxy-3-oxo-2,3-dihydro-1H-isoindol-5-yl]methyl N-[4-(3,4-difluorophenoxy)phenyl]carbamate, at […] was used to define […]. Assay results for each compound were reported as DC50, the concentration giving 50% response, and Dmax, the maximum response observed with the compound.

COc1c(COC(=O)Nc2ccc(Oc3cccc(F)c3)cc2F)ccc2c1C(=O)N(C1CCC(=O)NC1=O)C2 (stereo not shown) [Example 16, [2-(2,6-dioxopiperidin-3-yl)-4-methoxy-3-oxo-2,3-dihydro-1H-isoindol-5-yl]methyl N-[2-fluoro-4-(3-fluorophenoxy)phenyl]carbamate] was tested, and the IC50 (Phospho-Rb (Ser807/811)) was 130 nM, the Emax (Phospho-Rb (Ser807/811)) was 105% and the DC50 (GSPT1) was > 14000 nM. The Dmax (GSPT1) was 46%, the DC50 (Cyclin E1) was 161 nM and the Dmax (Cyclin E1) was 107%. For the same compound, the “Ratio of GSPT1 DC50/Cyclin E1 DC50” value (Cyclin E1) was >87.

For COc1c(COC(=O)Nc2ccc(Cc3ccc(F)c(F)c3)cc2)ccc2c1C(=O)N(C1CCC(=O)NC1=O)C2 (stereo not shown) [Example 17, [2-(2,6-dioxopiperidin-3-yl)-4-methoxy-3-oxo-2,3-dihydro-1H-isoindol-5-yl]methyl N-{4-[(3,4-difluorophenyl)methyl]phenyl}carbamate], the IC50 (Phospho-Rb (Ser807/811)) was 225 nM, the Emax (Phospho-Rb (Ser807/811)) was 114% and the DC50 (GSPT1) was > 14000 nM. For the same compound, the Dmax (GSPT1) was 15%, the DC50 (Cyclin E1) was 447 nM and the Dmax (Cyclin E1) was 99%. The “Ratio of GSPT1 DC50/Cyclin E1 DC50” value (Cyclin E1) was >31.

With COc1c(COC(=O)Nc2ccc(Cc3ccc(F)c(F)c3)cc2C)ccc2c1C(=O)N(C1CCC(=O)NC1=O)C2 (stereo not shown) [Example 18, [2-(2,6-dioxopiperidin-3-yl)-4-methoxy-3-oxo-2,3-dihydro-1H-isoindol-5-yl]methyl N-{4-[(3,4-difluorophenyl)methyl]-2-methylphenyl}carbamate] the IC50 (Phospho-Rb (Ser807/811)) was 85 nM, the Emax (Phospho-Rb (Ser807/811)) was 110% and the DC50 (GSPT1) was > 14000 nM. For the same compound, the Dmax (GSPT1) was 13%, the DC50 (Cyclin E1) was 89 nM and the Dmax (Cyclin E1) was 100%. The “Ratio of GSPT1 DC50/Cyclin E1 DC50” value (Cyclin E1) was >157.

COc1c(COC(=O)Nc2ccc(Cc3cc(F)c(F)c(F)c3)cc2)ccc2c1C(=O)N(C1CCC(=O)NC1=O)C2 (stereo not shown) [Example 19, [2-(2,6-dioxopiperidin-3-yl)-4-methoxy-3-oxo-2,3-dihydro-1H-isoindol-5-yl]methyl N-{4-[(3,4,5-trifluorophenyl)methyl]phenyl}carbamate] was tested, and the IC50 (Phospho-Rb (Ser807/811)) was 701 nM, the Emax (Phospho-Rb (Ser807/811)) was 92% and the DC50 (GSPT1) was > 14000 nM. It also gave a Dmax (GSPT1) of 9%, a DC50 (Cyclin E1) of 146 nM and a Dmax (Cyclin E1) of 105%. The “Ratio of GSPT1 DC50/Cyclin E1 DC50” value (Cyclin E1) was >96.

With COc1c(COC(=O)Nc2ccc(Cc3cccc(F)c3)cc2F)ccc2c1C(=O)N(C1CCC(=O)NC1=O)C2 (stereo not shown) [Example 20, [2-(2,6-dioxopiperidin-3-yl)-4-methoxy-3-oxo-2,3-dihydro-1H-isoindol-5-yl]methyl N-{2-fluoro-4-[(3-fluorophenyl)methyl]phenyl}carbamate] the IC50 (Phospho-Rb (Ser807/811)) was 440 nM, the Emax (Phospho-Rb (Ser807/811)) was 103% and the DC50 (GSPT1) was > 14000 nM. It also gave a Dmax (GSPT1) of 11%, a DC50 (Cyclin E1) of 96 nM and a Dmax (Cyclin E1) of 101%. The “Ratio of GSPT1 DC50/Cyclin E1 DC50” value (Cyclin E1) was >146.

With COc1c(COC(=O)Nc2ccc(Cc3ccc(F)c(Cl)c3)cc2)ccc2c1C(=O)N(C1CCC(=O)NC1=O)C2 (stereo not shown) [Example 21, [2-(2,6-dioxopiperidin-3-yl)-4-methoxy-3-oxo-2,3-dihydro-1H-isoindol-5-yl]methyl N-{4-[(3-chloro-4-fluorophenyl)methyl]phenyl}carbamate] the IC50 (Phospho-Rb (Ser807/811)) was 818 nM, the Emax (Phospho-Rb (Ser807/811)) was 92% and the DC50 (GSPT1) was > 14000 nM. The Dmax (GSPT1) was 14%, the DC50 (Cyclin E1) was 40 nM and the Dmax (Cyclin E1) was 101%. The “Ratio of GSPT1 DC50/Cyclin E1 DC50” value (Cyclin E1) was >353.

COc1c(COC(=O)Nc2ccc(Oc3cccc(F)c3F)cc2F)ccc2c1C(=O)N(C1CCC(=O)NC1=O)C2 (stereo not shown) [Example 22, [2-(2,6-dioxopiperidin-3-yl)-4-methoxy-3-oxo-2,3-dihydro-1H-isoindol-5-yl]methyl N-[4-(2,3-difluorophenoxy)-2-fluorophenyl]carbamate] was tested, and the IC50 (Phospho-Rb (Ser807/811)) was 263 nM, the Emax (Phospho-Rb (Ser807/811)) was 97% and the DC50 (GSPT1) was 11400 nM. It also gave a Dmax (GSPT1) of 57%, a DC50 (Cyclin E1) of 26 nM and a Dmax (Cyclin E1) of 109%. The “Ratio of GSPT1 DC50/Cyclin E1 DC50” value (Cyclin E1) was 431.

For COc1c(COC(=O)Nc2ccc(Oc3ccc(F)c(F)c3)cc2F)ccc2c1C(=O)N(C1CCC(=O)NC1=O)C2 (stereo not shown) [Example 23, [2-(2,6-dioxopiperidin-3-yl)-4-methoxy-3-oxo-2,3-dihydro-1H-isoindol-5-yl]methyl N-[4-(3,4-difluorophenoxy)-2-fluorophenyl]carbamate], the IC50 (Phospho-Rb (Ser807/811)) was 158 nM, the Emax (Phospho-Rb (Ser807/811)) was 97% and the DC50 (GSPT1) was > 14000 nM. It also gave a Dmax (GSPT1) of 27%, a DC50 (Cyclin E1) of 71 nM and a Dmax (Cyclin E1) of 105%. The “Ratio of GSPT1 DC50/Cyclin E1 DC50” value (Cyclin E1) was >196.

COc1c(COC(=O)Nc2ccc(Oc3cc(F)cc(F)c3)cc2F)ccc2c1C(=O)N(C1CCC(=O)NC1=O)C2 (stereo not shown) [Example 24, [2-(2,6-dioxopiperidin-3-yl)-4-methoxy-3-oxo-2,3-dihydro-1H-isoindol-5-yl]methyl N-[4-(3,5-difluorophenoxy)-2-fluorophenyl]carbamate] was tested, and the IC50 (Phospho-Rb (Ser807/811)) was 229 nM, the Emax (Phospho-Rb (Ser807/811)) was 105% and the DC50 (GSPT1) was > 14000 nM. For the same compound, the Dmax (GSPT1) was 10%, the DC50 (Cyclin E1) was 39 nM and the Dmax (Cyclin E1) was 107%. For the same compound, the “Ratio of GSPT1 DC50/Cyclin E1 DC50” value (Cyclin E1) was >358.

With COc1c(COC(=O)Nc2ccc(Oc3cc(F)c(F)c(F)c3)cc2Cl)ccc2c1C(=O)N(C1CCC(=O)NC1=O)C2 (stereo not shown) [Example 25, [2-(2,6-dioxopiperidin-3-yl)-4-methoxy-3-oxo-2,3-dihydro-1H-isoindol-5-yl]methyl N-[2-chloro-4-(3,4,5-trifluorophenoxy)phenyl]carbamate] the IC50 (Phospho-Rb (Ser807/811)) was 187 nM, the Emax (Phospho-Rb (Ser807/811)) was 96% and the DC50 (GSPT1) was > 14000 nM. The Dmax (GSPT1) was 37%, the DC50 (Cyclin E1) was 184 nM and the Dmax (Cyclin E1) was 107%. The “Ratio of GSPT1 DC50/Cyclin E1 DC50” value (Cyclin E1) was >76.
